Series [1] in a line: Compatibility of triclosan/2-octyl cyanoacrylate composition with sterilization (visual observation). The format is physicochemical. As to the method:
A 2-octyl cyanoacrylate monomer composition is prepared as in Example 1 by adding 1 wt % triclosan to 2 mL of 2-octyl cyanoacrylate monomer. The mixture is sealed in a glass vial or plastic vial and stirred.
After sitting for about twenty-four hours, the mixture contained in the plastic vial is sterilized using electron beam sterilization to a Sterility Assurance Level (SAL) of 10^−6. After sitting for about twenty-four hours, the mixture contained in the glass vial is sterilized using dry heat sterilization to a Sterility Assurance Level (SAL) of 10^−6. The characteristics of the sterilized compositions are observed at about one minute after sterilization and later at least twenty-four hours after sterilization.

Series [2] is described as follows: Solubility and stability of 1 wt % triclosan in 2-octyl cyanoacrylate monomer (visual observation). The format is physicochemical. The protocol: A 2-octyl cyanoacrylate monomer composition is prepared by adding 1 wt % triclosan to 2 mL of 2-octyl cyanoacrylate monomer. The mixture is sealed in a glass vial or plastic vial and stirred. The characteristics of the composition are observed at about one minute after preparation and later at least twenty-four hours after preparation.

Each structure is given as a SMILES string.

Consider `Oc1cc(Cl)ccc1Oc1ccc(Cl)cc1Cl` [triclosan, 2,4,4′-trichloro-2 hydroxy di-phenyl ether], for which the “compatibility with dry heat sterilization” value in series [1] (1 wt % in 2-octyl cyanoacrylate, glass vial, SAL 10^-6, solution remains clear) is “compatible”. In series [1] (1 wt % in 2-octyl cyanoacrylate, plastic vial, SAL 10^-6, solution remains clear), the “compatibility with electron beam sterilization” value is recorded as “compatible with electron beam sterilization”. The “premature polymerization during or after sterilization” value in series [1] (about one minute and at least twenty-four hours after sterilization) is “does not cause premature polymerization during or after sterilization”. In series [2] (1 wt % in 2-octyl cyanoacrylate, about one minute and at least twenty-four hours after preparation), the “premature polymerization (stability of monomer composition)” value was “does not cause premature polymerization”. In addition, the “solubility in the monomer” value in series [2] (1 wt % in 2 mL 2-octyl cyanoacrylate, observed about one minute and at least twenty-four hours after preparation, solution remains clear) is listed as “soluble in the monomer”.

For the origin of these results see US20050042266A1, “Cyanoacrylate compositions containing anti-microbial agent” (priority 2003, published 2005).
